Experimental data as given in ChEMBL document CHEMBL1141325, “Pinpointing pseurotins from a marine-derived Aspergillus as tools for chemical genetics using a synthetic lethality yeast screen” (2007).
Active and inactive are the calls of the source. The calls are words filed in the database; no cut-off is given here.

How the values were obtained:
Saccharomyces cerevisiae [1] = assay: Cytotoxicity against wild-type Saccharomyces cerevisiae by yeast halo assay relative to control; format: functional
Saccharomyces cerevisiae [2] = assay: Cytotoxicity against wild-type Saccharomyces cerevisiae hof1delta mutant by yeast halo assay relative to control; format: functional

Row | Structure (SMILES) | inhibition zone (IZ) (Saccharomyces cerevisiae [1]) [mm] | inhibition zone (IZ) (Saccharomyces cerevisiae [2]) [mm] | Activity (Saccharomyces cerevisiae [1]) | Activity (Saccharomyces cerevisiae [2])
1 | CC/C=C\[C@H](OC)[C@H](O)C1=C(C)C(=O)[C@]2(O1)C(=O)N[C@@](OC)(C(=O)c1ccccc1)[C@@H]2O [11-O-METHYLPSEUROTIN A] | 4 | 9 | – | –
2 | CC/C=C\[C@H](O)[C@H](O)C1=C(C)C(=O)[C@]2(O1)C(=O)N[C@@](OC)(C(=O)c1ccccc1)[C@@H]2O | – | – | inactive | inactive
